The values that follow come from patent US6664393B2 (priority 1999, dated 2003).

Test [1] has as its target T1, factor VIIa/tissue factor (Homo sapiens, UniProt P08709).
T1 construct: 25 μl human factor VIIa and TF (5 nM and 10 nM, respective final concentrations)
Kind of test: Factor VIIa assay (chromogenic, substrate S-2288). It is filed as biochemical. The method, then: (§1) Purified enzymes are used in chromogenic assays.
(§2) Ki=IC50/{1+(substrate concentration/Km)}
Kinetic assays were conducted at 25° C. in half-area microtiter plates (Costar Corp., Cambridge, Mass.) using a kinetic plate reader (Molecular Devices Spectramax 250).

Test [2] deals with T2, human factor Xa (Homo sapiens, UniProt P00742).
T2 construct: purchased Enzyme Research Laboratories, Inc; South Bend, Ind
T2 sequence (P00742 235-488 limits assumed): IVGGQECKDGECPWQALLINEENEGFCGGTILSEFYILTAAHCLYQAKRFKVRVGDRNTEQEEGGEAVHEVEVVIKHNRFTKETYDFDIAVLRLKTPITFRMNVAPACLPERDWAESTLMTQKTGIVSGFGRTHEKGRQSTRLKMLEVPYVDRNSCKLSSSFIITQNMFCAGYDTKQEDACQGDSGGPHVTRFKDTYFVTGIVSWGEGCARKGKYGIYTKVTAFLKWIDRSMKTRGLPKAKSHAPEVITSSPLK
T2 sequence (P00742 41-179 limits assumed): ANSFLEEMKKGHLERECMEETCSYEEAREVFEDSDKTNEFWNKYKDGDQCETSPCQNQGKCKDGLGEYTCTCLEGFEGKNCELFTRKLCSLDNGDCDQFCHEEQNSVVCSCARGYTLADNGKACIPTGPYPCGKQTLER
Put plainly: Factor Xa assay (chromogenic, substrate S-2765). It is filed as biochemical. The method, then: as §1, §2
The assay was performed by pre-incubating the compound of interest of formula I plus enzyme for 10 min. The assay was then initiated by adding substrate to obtain a final volume of 100 μl. The initial velocity of chromogenic substrate hydrolysis was measured by the change in absorbance at 405 nm using a Bio-tek Instruments kinetic plate reader (Ceres UV9OOHDi) at 25° C. during the linear portion of the time course (usually 1.5 min after addition of substrate).

[3] abbreviates: inhibition constant for inhibition of factor VIIa, 5 nM factor VIIa and 10 nM TF, 25° C., 500 μM substrate, read-out: Ki (FVIIa).
Where [4] appears, read: inhibition constant for inhibition of factor Xa, 25° C., 0.5 nM enzyme, 140 μM substrate, read-out: Ki (FXa).

Like-named read-outs stand apart in the source and are kept apart here.

T1 sequence (P08709 61-212): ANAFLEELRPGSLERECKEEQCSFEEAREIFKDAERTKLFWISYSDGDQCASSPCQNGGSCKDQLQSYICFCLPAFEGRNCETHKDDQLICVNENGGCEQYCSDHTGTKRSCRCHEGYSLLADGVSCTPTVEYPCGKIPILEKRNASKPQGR
T1 sequence (P08709 213-466): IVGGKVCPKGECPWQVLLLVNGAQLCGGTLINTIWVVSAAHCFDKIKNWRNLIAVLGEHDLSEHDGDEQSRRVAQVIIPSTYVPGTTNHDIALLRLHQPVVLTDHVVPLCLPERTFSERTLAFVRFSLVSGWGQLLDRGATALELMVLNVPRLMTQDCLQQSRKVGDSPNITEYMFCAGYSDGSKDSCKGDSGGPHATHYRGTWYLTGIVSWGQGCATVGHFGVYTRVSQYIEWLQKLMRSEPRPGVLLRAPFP
T1 sequence (P13726 33-295, further chain): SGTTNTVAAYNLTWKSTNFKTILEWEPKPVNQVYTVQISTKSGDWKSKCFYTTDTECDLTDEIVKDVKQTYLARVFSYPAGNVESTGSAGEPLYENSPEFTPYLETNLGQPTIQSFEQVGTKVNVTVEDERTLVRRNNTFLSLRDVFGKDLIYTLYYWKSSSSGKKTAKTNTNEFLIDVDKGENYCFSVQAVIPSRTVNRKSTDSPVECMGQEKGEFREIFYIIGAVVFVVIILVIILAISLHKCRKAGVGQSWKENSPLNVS

Usually Ki stands for a dissociation constant, usually derived from enzyme kinetics or from competition with a known ligand. As to `CN(C)C(=O)[C@H](CCCNC(=N)N)NC(=O)c1cc(O)c(Br)c(OCCc2ccc(Cl)cc2Cl)c1` [Example 45], the Ki was over 200 µM in test [1] (setting [3]) and 0.031 µM in test [2].

On to `Cc1c(O)cc(C(=O)N[C@@H](CCCNC(=N)N)C(N)=O)cc1OCCc1ccc(Cl)cc1Cl` [Example 6, (S)-N-(1-Carbamoyl-4-guanidinobutyl)-3-[2-(2,4-dichlorophenyl)ethoxy]-5-hydroxy-4-methylbenzamide], for which the Ki in test [1] (setting [3]) was found to be 7.5 µM; in test [2] it was 0.038 µM.

In the case of `N=C(N)NCCC[C@H](NC(=O)c1cc(O)c(Br)c(OCCc2ccc(Cl)cc2Cl)c1)C(=O)O` [Example 46], the Ki in test [1] (setting [3]) was over 200 µM; in test [2] it was 0.059 µM.

On to `CCCOC(=O)[C@H](CCCNC(=N)N)NC(=O)c1ccc(OC)c(OCCc2ccc(Cl)cc2Cl)c1` [Example 50], for which the Ki in test [1] (setting [3]) was over 200 µM; in test [2] it was 0.729 µM.

For `N=C(N)NCCC[C@H](NC(=O)c1cccc(OCCc2ccc(Cl)cc2)c1)C(N)=O` [Example 8], in test [2], the affinity corresponds to a Ki of 1.1 µM.

For `N=C(N)NCCC[C@H](NC(=O)c1cc(OCCc2ccc(Cl)cc2Cl)c2ccccc2n1)C(N)=O` [Example 34], the Ki in test [1] (setting [3]) was 9.8 µM; in test [2] it was 0.75 µM.

On to `Cc1cc(C)c(CCOc2cc(C(=O)N[C@@H](CCCNC(=N)N)C(N)=O)nc3ccccc23)c(C)c1` [Example 32], for which the Ki in test [1] and in test [2] was 13 µM in each case.

Turning to `N=C(N)NCCC[C@H](NC(=O)c1cc(O)c(Br)c(OCCc2ccc(Cl)cc2Cl)c1)C(N)=O` [Example 5, (S)-4-Bromo-N-(1-carbamoyl-4-guanidinobutyl)-3-[2-(2,4-dichlorophenyl)-ethoxy]-5-hydroxybenzamide], the inhibition constant (Ki) in test [1] (setting [3]) stood at 58 µM; in test [2], 0.018 µM.

With `N=C(N)NCCC[C@H](NC(=O)c1ccc(N)c(OCCc2ccc(Cl)cc2Cl)c1)C(N)=O` [Example 2, (S)-4-Amino-N-(-carbamoyl-4-guanidinobutyl)-3-[2-(2,4-dichlorophenyl)ethoxy]benzamide], in test [2] (setting [4]), the Ki is 0.076 µM.

On to `N=C(N)NCCC[C@H](NC(=O)c1cc(O)c(Br)c(OCCc2ccc(Cl)cc2Cl)c1)C(=O)NCc1cccnc1` [Example 39, (S)-4-Bromo-3-[2-(2,4-dichlorophenyl)ethoxy]-N-{4-guanidino-1-[(pyridin-3-ylmethyl)carbamoyl]butyl}-5-hydroxybenzamide], for which the inhibitory constant (Ki) was over 200 µM in test [1] (setting [3]) and 0.445 µM in test [2].

Consider `CC(=O)Nc1ccc(C(=O)N[C@@H](CCCNC(=N)N)C(N)=O)cc1OCCc1ccc(Cl)cc1Cl` [Example 3, (S)-4-Acetylamino-N-(1-carbamoyl-4-guanidinobutyl)-3-[2-(2,4-dichlorophenyl)ethoxy]benzamide], for which, in test [2] (setting [4]), the Ki is 0.67 µM.

For `COc1ccc(C(=O)N[C@@H](CCCNC(=N)N)C(=O)N(C)C)cc1OCCc1ccc(Cl)cc1Cl` [Example 48], the results for the Ki in test [1] (setting [3]) and in test [2] were over 200 µM and 0.56 µM, respectively.

As for `N=C(N)NCCC[C@H](NC(=O)c1ccc([N+](=O)[O-])c(OCCc2ccc(Cl)cc2)c1)C(N)=O` [Example 11], the Ki in test [2] stood at 0.192 µM.

In test [2], `Cc1ccc(CCOc2cccc(C(=O)N[C@@H](CCCNC(=N)N)C(N)=O)c2)cc1` [Example 16] gave a Ki of 6.15 µM.

Take `CCCOC(=O)[C@H](CCCNC(=N)N)NC(=O)c1cc(O)c(Br)c(OCCc2ccc(Cl)cc2Cl)c1` [Example 47]: the Ki in test [1] (setting [3]) was over 200 µM; in test [2], 0.021 µM.

For `N=C(N)NCCC[C@H](NC(=O)c1ccc([N+](=O)[O-])c(OCCc2ccc(Cl)cc2Cl)c1)C(N)=O` [Example 1, (S)-4-Nitro-N-(1-carbamoyl-4-guanidinobutyl)-3-[2-(2,4-dichlorophenyl)ethoxy]benzamide], the Ki was 188 µM in test [1] (setting [3]) and 0.048 µM in test [2].

As to `N=C(N)NCCC[C@H](NC(=O)c1ccc(NC(=O)CCC(=O)O)c(OCCc2ccc(Cl)cc2Cl)c1)C(N)=O` [Example 4, (S)-N-{4-(1-Carbamoyl-4-guanidinobutylcarbamoyl)-2-[2-(2,4-dichlorophenyl)ethoxy]phenyl}succinamic Acid], the Ki amounted to 42 µM in test [1] (setting [3]) and 0.354 µM in test [2].
